{"source": "patent US11773062B2", "about": "“Deuterated compounds” (priority 2021, dated 2023)", "key": {"[1]": {"experiment": "Human liver mitochondrial fraction intrinsic clearance of SPL026 with/without MAO-A and MAO-B inhibitors", "assay_type": "in vitro ADME", "excerpt": "(§1) Human Liver Mitochondrial (HLMt) fractions contain high quantities of MAO enzymes and therefore, provide a useful tool to measure the clearance of MAO substrates."}, "[2]": {"experiment": "Human liver mitochondrial fraction intrinsic clearance of SPL026, SPL028i, SPL028iii, SPL028viii", "assay_type": "in vitro ADME", "conditions": "0.5 mg/mL human liver mitochondrial fraction (Table 10)", "excerpt": "as §1"}, "CYP1A2": {"molecular_target": "T1, CYP1A2 (Homo sapiens, UniProt P05177)", "T1 sequence (P05177 1-516)": "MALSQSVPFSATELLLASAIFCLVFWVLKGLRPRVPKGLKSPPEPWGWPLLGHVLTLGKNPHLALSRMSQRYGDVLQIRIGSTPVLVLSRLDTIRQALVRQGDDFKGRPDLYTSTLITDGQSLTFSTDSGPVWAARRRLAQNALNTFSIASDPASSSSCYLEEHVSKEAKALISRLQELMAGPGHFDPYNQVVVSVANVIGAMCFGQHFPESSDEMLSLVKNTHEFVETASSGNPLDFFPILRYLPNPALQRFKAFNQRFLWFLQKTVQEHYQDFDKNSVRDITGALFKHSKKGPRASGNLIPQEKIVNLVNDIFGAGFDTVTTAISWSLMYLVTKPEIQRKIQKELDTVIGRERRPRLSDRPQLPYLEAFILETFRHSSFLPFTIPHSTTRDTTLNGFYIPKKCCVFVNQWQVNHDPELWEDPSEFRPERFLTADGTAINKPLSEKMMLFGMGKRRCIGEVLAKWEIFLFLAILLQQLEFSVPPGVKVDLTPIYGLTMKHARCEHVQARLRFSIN", "experiment": "in vitro", "protocol": "(§2) Samples were taken at predetermined time points.\n(§3) Samples were then centrifuged at −4° C.\n(§4) Positive control markers are as specified in Table 11."}, "CYP2B6": {"molecular_target": "T2, CYP2B6 (Homo sapiens, UniProt P20813)", "T2 sequence (P20813 1-491)": "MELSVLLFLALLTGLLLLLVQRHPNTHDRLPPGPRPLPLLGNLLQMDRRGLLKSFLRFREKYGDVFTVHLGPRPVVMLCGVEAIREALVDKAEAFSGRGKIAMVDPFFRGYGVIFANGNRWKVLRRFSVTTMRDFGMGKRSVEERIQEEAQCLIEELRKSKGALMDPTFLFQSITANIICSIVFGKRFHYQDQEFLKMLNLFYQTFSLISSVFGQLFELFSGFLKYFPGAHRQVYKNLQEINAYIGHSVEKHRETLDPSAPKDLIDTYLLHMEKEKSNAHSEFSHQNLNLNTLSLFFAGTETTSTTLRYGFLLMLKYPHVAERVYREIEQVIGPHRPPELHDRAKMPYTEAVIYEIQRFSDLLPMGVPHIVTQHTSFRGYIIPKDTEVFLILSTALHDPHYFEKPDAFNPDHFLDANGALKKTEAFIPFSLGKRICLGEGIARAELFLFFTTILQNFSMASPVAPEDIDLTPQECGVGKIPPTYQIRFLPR", "experiment": "in vitro", "protocol": "as §2, §3, §4"}, "CYP2C8": {"molecular_target": "T3, CYP2C8 (Homo sapiens, UniProt P10632)", "T3 sequence (P10632 1-490)": "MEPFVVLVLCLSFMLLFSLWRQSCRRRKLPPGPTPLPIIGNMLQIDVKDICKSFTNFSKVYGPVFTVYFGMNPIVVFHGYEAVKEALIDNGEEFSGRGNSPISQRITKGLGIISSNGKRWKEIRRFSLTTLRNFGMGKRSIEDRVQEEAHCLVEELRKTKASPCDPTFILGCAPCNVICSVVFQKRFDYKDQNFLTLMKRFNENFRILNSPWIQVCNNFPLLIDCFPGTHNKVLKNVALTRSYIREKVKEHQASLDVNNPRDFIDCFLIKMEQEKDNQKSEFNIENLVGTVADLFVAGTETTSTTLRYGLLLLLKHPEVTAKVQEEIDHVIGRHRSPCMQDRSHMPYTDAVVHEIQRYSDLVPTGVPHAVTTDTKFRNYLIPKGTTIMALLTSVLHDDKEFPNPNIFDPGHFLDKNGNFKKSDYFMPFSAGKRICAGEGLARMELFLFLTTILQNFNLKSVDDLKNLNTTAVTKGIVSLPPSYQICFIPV", "experiment": "in vitro", "protocol": "as §2, §3, §4"}, "CYP3A5": {"molecular_target": "CYP3A5 (Homo sapiens, UniProt P20815)", "sequence (P20815 whole entry)": "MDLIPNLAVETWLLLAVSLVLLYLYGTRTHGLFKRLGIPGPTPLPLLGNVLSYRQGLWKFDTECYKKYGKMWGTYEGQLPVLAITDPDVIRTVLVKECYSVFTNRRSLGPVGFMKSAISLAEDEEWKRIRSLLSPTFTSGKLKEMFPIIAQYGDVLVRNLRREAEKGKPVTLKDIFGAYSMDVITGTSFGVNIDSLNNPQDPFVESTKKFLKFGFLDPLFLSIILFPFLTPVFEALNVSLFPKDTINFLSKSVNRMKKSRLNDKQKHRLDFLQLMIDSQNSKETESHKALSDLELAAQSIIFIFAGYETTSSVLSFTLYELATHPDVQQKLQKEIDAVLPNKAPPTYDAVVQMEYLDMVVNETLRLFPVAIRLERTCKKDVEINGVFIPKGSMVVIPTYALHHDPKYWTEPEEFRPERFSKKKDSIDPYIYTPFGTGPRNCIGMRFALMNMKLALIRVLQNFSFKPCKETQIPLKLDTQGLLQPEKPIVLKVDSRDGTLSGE", "experiment": "in vitro", "protocol": "as §2, §3, §4"}, "CYP2C19": {"molecular_target": "CYP2C19 (Homo sapiens, UniProt P33261)", "sequence (P33261 whole entry)": "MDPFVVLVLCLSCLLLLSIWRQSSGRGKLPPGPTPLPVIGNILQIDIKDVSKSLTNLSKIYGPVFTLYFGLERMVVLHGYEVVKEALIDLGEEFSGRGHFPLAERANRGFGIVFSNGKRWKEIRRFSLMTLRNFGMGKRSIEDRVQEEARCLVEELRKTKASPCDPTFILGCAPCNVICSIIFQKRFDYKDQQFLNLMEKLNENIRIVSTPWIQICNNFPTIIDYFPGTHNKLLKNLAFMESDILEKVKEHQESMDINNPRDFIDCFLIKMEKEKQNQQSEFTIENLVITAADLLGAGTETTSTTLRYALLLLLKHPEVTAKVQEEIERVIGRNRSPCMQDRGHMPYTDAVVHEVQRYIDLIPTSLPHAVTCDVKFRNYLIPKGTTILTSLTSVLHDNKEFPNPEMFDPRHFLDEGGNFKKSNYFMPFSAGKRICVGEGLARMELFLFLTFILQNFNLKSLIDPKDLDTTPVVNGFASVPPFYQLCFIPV", "experiment": "CYP phenotyping, CYP bactosomes", "protocol": "as §2, §3, §4"}, "CYP2C9": {"molecular_target": "CYP2C9 (Homo sapiens, UniProt P11712)", "sequence (P11712 whole entry)": "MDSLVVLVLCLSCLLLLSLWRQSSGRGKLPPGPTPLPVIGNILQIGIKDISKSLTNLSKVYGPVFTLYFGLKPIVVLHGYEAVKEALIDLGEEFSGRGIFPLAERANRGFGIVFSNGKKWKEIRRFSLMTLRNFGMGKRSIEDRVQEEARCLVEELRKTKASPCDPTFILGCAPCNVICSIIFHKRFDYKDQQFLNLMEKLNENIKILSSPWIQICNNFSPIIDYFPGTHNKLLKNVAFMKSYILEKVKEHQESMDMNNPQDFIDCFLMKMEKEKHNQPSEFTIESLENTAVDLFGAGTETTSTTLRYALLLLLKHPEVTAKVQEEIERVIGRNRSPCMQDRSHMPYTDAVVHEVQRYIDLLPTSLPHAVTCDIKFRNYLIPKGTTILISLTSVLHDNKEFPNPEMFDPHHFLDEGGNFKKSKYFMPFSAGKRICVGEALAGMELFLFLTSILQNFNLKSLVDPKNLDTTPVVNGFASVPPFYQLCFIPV", "experiment": "CYP phenotyping, CYP bactosomes", "protocol": "as §2, §3, §4"}, "CYP3A4": {"molecular_target": "CYP3A4 (Homo sapiens, UniProt P08684)", "sequence (P08684 whole entry)": "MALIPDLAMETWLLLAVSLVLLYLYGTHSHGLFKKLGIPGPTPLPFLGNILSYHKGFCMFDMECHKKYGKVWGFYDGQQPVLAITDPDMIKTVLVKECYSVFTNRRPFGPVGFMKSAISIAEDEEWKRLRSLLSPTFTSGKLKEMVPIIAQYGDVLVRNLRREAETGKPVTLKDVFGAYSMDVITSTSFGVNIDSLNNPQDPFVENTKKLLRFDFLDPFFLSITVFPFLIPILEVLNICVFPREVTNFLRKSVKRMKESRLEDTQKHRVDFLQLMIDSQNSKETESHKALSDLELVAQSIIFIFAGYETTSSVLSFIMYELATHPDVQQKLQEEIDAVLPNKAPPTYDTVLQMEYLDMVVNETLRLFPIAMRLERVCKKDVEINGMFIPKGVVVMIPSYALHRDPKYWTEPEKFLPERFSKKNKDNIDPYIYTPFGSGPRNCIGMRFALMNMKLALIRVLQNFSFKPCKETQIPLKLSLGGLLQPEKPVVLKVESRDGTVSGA", "experiment": "CYP phenotyping, CYP bactosomes", "protocol": "as §2, §3, §4"}, "CYP2D6 [3]": {"molecular_target": "T4, CYP2D6 (Homo sapiens, UniProt P10635)", "T4 sequence (P10635 whole entry)": "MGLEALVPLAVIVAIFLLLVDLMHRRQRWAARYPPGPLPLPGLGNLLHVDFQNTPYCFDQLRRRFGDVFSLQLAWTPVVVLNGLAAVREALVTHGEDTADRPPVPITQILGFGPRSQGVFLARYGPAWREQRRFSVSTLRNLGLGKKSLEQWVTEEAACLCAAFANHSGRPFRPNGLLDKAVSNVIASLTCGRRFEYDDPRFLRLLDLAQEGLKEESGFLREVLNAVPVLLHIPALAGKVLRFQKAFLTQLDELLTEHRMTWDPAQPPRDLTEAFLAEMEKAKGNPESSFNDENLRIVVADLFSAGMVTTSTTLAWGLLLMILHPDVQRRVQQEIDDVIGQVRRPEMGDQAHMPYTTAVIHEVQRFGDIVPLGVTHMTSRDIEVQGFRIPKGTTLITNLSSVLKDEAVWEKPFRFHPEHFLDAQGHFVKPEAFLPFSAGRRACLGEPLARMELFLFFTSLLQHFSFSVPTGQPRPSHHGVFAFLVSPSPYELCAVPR", "experimental": "(§5) The CYPs used in this study are heterologously expressed in E. coli and purchased as individualised forms (CYP bactosomes) from CYPEX. Bactosomes contain recombinant CYP isoenzymes combined with CYP reductase leading to a higher specific activity than liver microsomes.\n(§6) Phosphate buffer is prepared at 0.1 M, pH 7.4 by combining 0.1 M Na2HPO4 and 0.1 M KH2PO4 solutions.\n(§7) Nicotinamide adenine dinucleotide 2′-phosphate reduced tetrasodium salt hydrate (NADPH) is prepared at 10 m<in 0.1 M phosphate buffer (pH 7.4).\n(§8) The individual CYP bactosomes are thawed at room temperature undiluted to 200 pmol/mL and 0.1 M phosphate buffer.\n(§9) Standard final incubation conditions are 1-3 μM compound in a buffer containing 100 pmol/mL CYP bactosome, 1% (v/v) DMSO.\n(§10) The elimination rate constant (k) is calculated using the slope of a ln (MS peak area or response—if internal standard is used) vs. time plot of the test compounds and markers.\n(§11) Intrinsic clearance in μL/min/nmol CYP is calculated using the following equation: Clint=−1000 k/CYP concentration\n(§12) Projected CYP isoform intrinsic clearance accounting for estimated CYP abundance in human liver microsomes (μL/min/mg microsomal protein)* is calculated using the following equation: Projected set isoform intrinsic clearance=Estimated CYP abundance*Clint * Estimated CYP abundance is taken as an average from three literature references 1, 2 3 and the abundances used are as follows (nmol CYP/mg Human Liver Microsomal Protein):"}, "CYP2D6 [4]": {"molecular_target": "T4, CYP2D6", "experiment": "in vitro", "conditions": "recombinant enzyme, pH 7.4", "experimental": "as §5, §6, §7, §8, §9, §10, §11, §12"}, "CYP2D6 [5]": {"molecular_target": "T4, CYP2D6", "experiment": "CYP phenotyping, CYP bactosomes", "experimental": "as §5, §6, §7, §8, §9, §10, §11, §12"}, "[6]": {"experiment": "In vitro mouse hepatocytic intrinsic clearance", "conditions": "male, CD-1, mouse, hepatocytes"}, "[7]": {"test_system": "human (mixed gender) hepatocytes", "experiment": "In vitro intrinsic clearance in human hepatocytes with and without MAO-A/B inhibitor combination (first experiment)", "experimental": "Standard final incubation conditions are 1 μM compound in buffer containing nominally ˜0.5 million viable cells/mL, ˜0.9% (v/v) acetonitrile (MeCN) and ˜0.1% (v/v) DMSO (specific assay concentrations outlined above, section 2).\nSamples are then centrifuged at 4° C."}, "[8]": {"conditions": "in vivo; cited from earlier work"}, "[9]": {"conditions": "human liver mitochondrial fraction, Deprenyl (MAO-B inhibitor) 100 nM"}, "[10]": {"conditions": "E. coli CYPEX membranes, 100 pmol/mL CYP"}, "[11]": {"conditions": "human, recombinant enzyme, pH 7.4"}, "[12]": {"conditions": "human hepatocytes, with MAO-A/B inhibitor combination (Table 5)"}, "[13]": {"conditions": "human hepatocytes, without MAO-A/B inhibitor combination (Table 5)"}}}
{"compound": "CN(C)CCc1c[nH]c2ccccc12", "note": "[SPL026, N,N-dimethyltryptamine, reference compound]", "values": [{"measurement": "half-life", "setting": "[1]; 0.5 mg/mL human liver mitochondrial fraction, DMSO Vehicle (no inhibitor)", "result": 33.7, "unit": "min"}, {"measurement": "half-life", "setting": "[1]; human liver mitochondrial fraction, Clorgyline (MAO-A inhibitor) 100 nM", "result": ">373.7", "unit": "min"}, {"measurement": "Intrinsic Clearance", "setting": "[1]; [9]", "result": 42.7, "unit": "μL/min/mg protein"}, {"measurement": "half-life", "setting": "[1]; [9]", "result": 32.5, "unit": "min"}, {"measurement": "half-life", "setting": "[2]", "result": 8.6, "unit": "min"}, {"measurement": "intrinsic clearance, CYP isoform 1A2", "setting": "CYP1A2; [10]", "result": "<29", "unit": "μL/min/nmol CYP"}, {"measurement": "half-life", "setting": "CYP1A2; [11]", "result": "> 240", "unit": "min"}, {"measurement": "intrinsic clearance, CYP isoform 2B6", "setting": "CYP2B6; [10]", "result": "<29", "unit": "μL/min/nmol CYP"}, {"measurement": "half-life", "setting": "CYP2B6; [11]", "result": "> 240", "unit": "min"}, {"measurement": "intrinsic clearance, CYP isoform 2C8", "setting": "CYP2C8; [10]", "result": "<29", "unit": "μL/min/nmol CYP"}, {"measurement": "half-life", "setting": "CYP2C8; [11]", "result": "> 240", "unit": "min"}, {"measurement": "intrinsic clearance, CYP isoform 3A5", "setting": "CYP3A5; [10]", "result": "<29", "unit": "μL/min/nmol CYP"}, {"measurement": "half-life", "setting": "CYP3A5; [11]", "result": "> 240", "unit": "min"}, {"measurement": "substrate for CYP2C19", "setting": "CYP2C19; CYP phenotyping", "result": "substrates"}, {"measurement": "intrinsic clearance, CYP isoform 2C19", "setting": "CYP2C19; [10]", "result": 37, "unit": "μL/min/nmol CYP"}, {"measurement": "half-life", "setting": "CYP2C19; [11]", "result": 189, "unit": "min"}, {"measurement": "projected scaled intrinsic clearance, CYP isoform 2C19", "setting": "CYP2C19; scaled by estimated CYP abundance in human liver microsomes (0.009 nmol CYP/mg)", "result": "0.3 μl/min/mg microsomal protein"}, {"measurement": "intrinsic clearance, CYP isoform 2C9", "setting": "CYP2C9; [10]", "result": "<29", "unit": "μL/min/nmol CYP"}, {"measurement": "half-life", "setting": "CYP2C9; [11]", "result": "> 240", "unit": "min"}, {"measurement": "intrinsic clearance, CYP isoform 3A4", "setting": "CYP3A4; [10]", "result": "<29", "unit": "μL/min/nmol CYP"}, {"measurement": "half-life", "setting": "CYP3A4; [11]", "result": "> 240", "unit": "min"}, {"measurement": "projected scaled intrinsic clearance, CYP isoform 2D6", "setting": "CYP2D6 [3]", "result": "9.5 μl/min/mg microsomal protein"}, {"measurement": "half-life", "setting": "CYP2D6 [4]", "result": 9, "unit": "min"}, {"measurement": "substrate for CYP2D6", "setting": "CYP2D6 [5]; CYP phenotyping", "result": "substrates"}, {"measurement": "intrinsic clearance, CYP isoform 2D6", "setting": "CYP2D6 [5]; [10]", "result": 801, "unit": "μL/min/nmol CYP"}, {"measurement": "half-life at 5 μM", "setting": "[6]", "result": 15.3, "unit": "min"}, {"measurement": "hepatocyte CLint at 5 μM", "setting": "[6]", "result": 124, "unit": "µL/min/1e6 cells"}, {"measurement": "% change in half-life, MAO inhibitors vs no inhibitors", "setting": "[7]; human hepatocytes (Table 5)", "result": 3.82, "unit": "%"}, {"measurement": "% change in intrinsic clearance, MAO inhibitors vs no inhibitors", "setting": "[7]; human hepatocytes (Table 5)", "result": "−4.00", "unit": "%"}, {"measurement": "Intrinsic clearance, with inhibitors", "setting": "[7]; human hepatocytes, with 100 nM clorgyline + 100 nM deprenyl/selegiline (Table 3)", "result": 13.24, "unit": "μL/min/million cells"}, {"measurement": "Half-life, with inhibitors", "setting": "[7]; [12]", "result": 96.06, "unit": "min"}, {"measurement": "Intrinsic clearance, with inhibitors", "setting": "[7]; [12]", "result": 13.24, "unit": "μL/min/million cells"}, {"measurement": "Half-life, with inhibitors", "setting": "[7]; human hepatocytes, with MAO-A/B inhibitors (Table 4; unit given only in Table 5)", "result": 96.06, "unit": "min"}, {"measurement": "slower intrinsic clearance with inclusion of MAO inhibitors", "setting": "[7]; human hepatocytes, with vs without MAO inhibitors", "result": "~4", "unit": "%"}, {"measurement": "Half-life, without inhibitors", "setting": "[7]; human hepatocytes, without MAO inhibitors (Table 4; unit given only in Table 5)", "result": 92.39, "unit": "min"}, {"measurement": "Half-life, without inhibitors", "setting": "[7]; [13]", "result": 92.39, "unit": "min"}, {"measurement": "Intrinsic clearance, without inhibitors", "setting": "[7]; [13]", "result": 13.77, "unit": "μL/min/million cells"}]}
{"compound": "[2H]C([2H])(c1c[nH]c2ccccc12)C([2H])([2H])N(C)C", "note": "[D4DMT, α,α,β,β-tetradeutero-N,N-dimethyltryptamine]", "values": [{"measurement": "behavioural effect compared to equal doses of DMT", "setting": "[8]", "result": "shorter time to onset and potentiation of behaviour disrupting effects"}]}
